Data taken from US20210386367A1, “DEVICES AND SYSTEMS FOR GASTROINTESTINAL MICROBIOME DETECTION AND MANIPULATION” (Progenity, Inc., priority 2018, published 2021).
Values after ≈ are worked out from the molar mass of the structure shown. “Also recorded” adds a separate entry of the source. Read-outs that look alike come from different tables or passages of the source.

What was measured:
Klebsiella spp. = test: Broth microdilution MIC, 50 clinical isolates (20 K. oxytoca, 30 K. pneumoniae); type: cell-based; details: for MIC50: read-out: MIC50
Method: Minimal inhibitory concentration (MIC) values were determined by broth microdilution or agar dilution in accordance with guidelines from the Clinical and Laboratory Standards Institute (CLSI; (1) “Methods for Dilution Antimicrobial Susceptibility Tests for Bacteria That Grow Aerobically; Approved Standard; 11th ed.” CLSI standard M07-A11, 2018; (2) “Performance Standards for Antimicrobial Susceptibility Testing; Twenty-Eighth Informational Supplement,” CLSI document M100-S28, 2018; and (3) “Methods for Antimicrobial Susceptibility Testing of Anaerobic Bacteria; Approved Standard—Eighth Edition,” CLSI document M11-A8, 2012).
Tested aerobically by broth microdilution: • Escherichia coli, n=50 • Klebsiella spp., n=50 • Pseudomonas aeruginosa, n=50 • Streptococcus spp., n=50 • Staphylococcus aureus, n=50 • Enterococcus faecalis, n=50 • Enterobacter aerogenes, n=50 • Proteus mirabilis, n=50
Broth microdilution testing of aerobic bacteria was conducted in cation-adjusted Mueller Hinton broth (MHBII). For testing streptococci, lysed horse blood (LHB) was added to MHBII broth at a final concentration of 3%. Where LHB was used, it was added after filtering.
Broth microdilution susceptibility testing in 96-well microplates was conducted in accordance with CLSI methods (1) and (2). Automated liquid handlers were used to conduct serial dilutions and liquid transfers, including the Multidrop 384 (Labsystems, Helsinki, Finland), Biomek 2000, and the Biomek FX (Beckman Coulter, Fullerton, Calif.). All wells in columns 2 through 12 of a standard 96-well microdilution plate (Costar 3795) were filled with 150 μL of the appropriate diluent. Then, 300 μL of the test agents were added to the wells of column 1 of the plates at 100× the highest final concentration to be tested. Serial two-fold dilutions were made across the rows through column 11 using the Biomek 2000. The wells of column 12 contained no drug and served as the growth control wells. This plate served as the “mother plate” from which MIC assay plates or “daughter plates” were made.
The daughter plates were loaded with 190 μL per well of the appropriate medium using the Multidrop 384. The daughter plates were created using the Biomek FX which transferred 2 μL of drug solution from each well of a mother plate to each corresponding well of the daughter plate in a single step. A standardized inoculum of each test organism was prepared per CLSI methods (1) to equal a 0.5 McFarland standard, followed by a dilution of 1:20 for aerobes and 1:10 for anaerobes. The plates were then inoculated with 10 μL of the diluted inoculum using the Biomek 2000 from low to high drug concentration, resulting in a final concentration of approximately 5×10^5 CFU/mL per well. An un-inoculated plate was incubated in parallel for each medium for the purpose of assessing solubility of the drug in the test media.
Inoculated plates were stacked 3 or 4 high, covered with a sterile lid on the top plate, placed into boxes with CO2 planchets (streptococci) or plastic bags (all other isolates). Plates were incubated at 35° C. for 16-24 hr in ambient air for aerobes or for 42-48 hr in the anaerobic environment of the Bactron II anaerobe chamber (Sheldon Manufacturing Co.; Cornelius, Oreg.). Following incubation, the microplates were removed from the incubator and viewed from the bottom using a plate viewer. The MIC values were read and recorded as the lowest concentration of drug that inhibited visible growth of the organism as per CLSI methods (1) and (2).

[1] = tested on: Bacteroides non fragilis clinical isolates; test: MIC distribution against clinical isolates; type: cell-based; details: 29 Bacteroides non-fragilis isolates
[2] = tested on: Prevotella spp. clinical isolates; test: MIC distribution against clinical isolates; type: cell-based
S. pneumoniae ATCC 49619 = details: cited from earlier work
SIBO Bacteria = details: cited from earlier work
[3] = tested on: Bacteroides spp. (B. fragilis ATCC 25285, B. vulgatus, B. ovatus MMX 3503); test: Agar dilution MIC (spontaneous mutation study; strain in conditions); type: cell-based
[4] = MIC 0.5 μg/mL, 30 Prevotella spp. isolates
[5] = MIC 4 μg/mL, 30 Prevotella spp. isolates
[6] = MIC 8 μg/mL, 30 Prevotella spp. isolates
[7] = MIC 16 μg/mL, 30 Prevotella spp. isolates
[8] = MIC 32 μg/mL, 30 Prevotella spp. isolates
[9] = MIC 64 μg/mL, 30 Prevotella spp. isolates
[10] = Bacteroides fragilis, ATCC25285, read-out: Agar MIC
[11] = Bacteroides ovatus, ATCC25285, read-out: Agar MIC
[12] = Phocaeicola vulgatus, ATCC 25285 / ATCC 8482, read-out: Agar MIC
[13] = over evaluated Bacteroides spp., read-out: MIC values (agar dilution)
[14] = MIC 0.015 μg/mL, 30 Prevotella spp. isolates
[15] = MIC 0.03 μg/mL, 30 Prevotella spp. isolates
[16] = MIC 0.06 μg/mL, 30 Prevotella spp. isolates
[17] = MIC ≤0.008 μg/mL, 30 Prevotella spp. isolates

CO/N=C(\C(=O)N[C@@H]1C(=O)N2C(C(=O)O)=C(CSc3nc(=O)c(=O)[nH]n3C)CS[C@H]12)c1csc(N)n1 [ceftriaxone]
% I (Klebsiella spp.): 6% | % R (Klebsiella spp.): 28% | % S (Klebsiella spp.): 66% | Mode (Klebsiella spp.): 0.06 µg/mL | Cumulative percentage of isolates at MIC (Klebsiella spp.; 0.015 μg/mL): 2.0% | Number of test isolates at MIC (Klebsiella spp.; 0.015 μg/mL): 1 | Cumulative percentage of isolates at MIC (Klebsiella spp.; 0.03 μg/mL): 12.0% | Number of test isolates at MIC (Klebsiella spp.; 0.03 μg/mL): 5 | Cumulative percentage of isolates at MIC (Klebsiella spp.; 0.06 μg/mL): 14.0% | Number of test isolates at MIC (Klebsiella spp.; 0.06 μg/mL): 16 | Cumulative percentage of isolates at MIC (Klebsiella spp.; 0.5 μg/mL): 64.0% | Number of test isolates at MIC (Klebsiella spp.; 0.5 μg/mL): 1 | Cumulative percentage of isolates at MIC (Klebsiella spp.; 1 μg/mL): 66.0% | Number of test isolates at MIC (Klebsiella spp.; 1 μg/mL): 1 | Cumulative percentage of isolates at MIC (Klebsiella spp.; 2 μg/mL): 72.0% | Number of test isolates at MIC (Klebsiella spp.; 2 μg/mL): 3 | Cumulative percentage of isolates at MIC (Klebsiella spp.; 8 μg/mL): 76.0% | Number of test isolates at MIC (Klebsiella spp.; 8 μg/mL): 2 | Cumulative percentage of isolates at MIC (Klebsiella spp.; 32 μg/mL): 80.0% | Number of test isolates at MIC (Klebsiella spp.; 32 μg/mL): 2 | Cumulative percentage of isolates at MIC (Klebsiella spp.; >128 μg/mL): 100.0% | Number of test isolates at MIC (Klebsiella spp.; >128 μg/mL): 10 | MIC90 (Klebsiella spp.; Klebsiella): > 128 µg/mL | MIC50 (Klebsiella spp.; Klebsiella): 0.12 µg/mL (≈ 0.216 µM) | % I (Klebsiella spp.; listed as CTR): 6% | % R (Klebsiella spp.; listed as CTR): 28% | MIC90 (Klebsiella spp.; listed as CTR): >128 µg/mL | Cumulative percentage of isolates inhibited at MIC ([1]; MIC 1 μg/mL): 3.4% | Number of test isolates at MIC ([1]; MIC 1 μg/mL): 1 | Cumulative percentage of isolates inhibited at MIC ([1]; MIC 2 μg/mL): 6.9% | Number of test isolates at MIC ([1]; MIC 2 μg/mL): 1 | Cumulative percentage of isolates inhibited at MIC ([1]; MIC 4 μg/mL): 13.8% | Number of test isolates at MIC ([1]; MIC 4 μg/mL): 2 | Cumulative percentage of isolates inhibited at MIC ([1]; MIC 16 μg/mL): 24.1% | Number of test isolates at MIC ([1]; MIC 16 μg/mL): 3 | Cumulative percentage of isolates inhibited at MIC ([1]; MIC 32 μg/mL): 27.6% | Number of test isolates at MIC ([1]; MIC 32 μg/mL): 1 | Cumulative percentage of isolates inhibited at MIC ([1]; MIC 64 μg/mL): 34.5% | Number of test isolates at MIC ([1]; MIC 64 μg/mL): 2 | Cumulative percentage of isolates inhibited at MIC [2]: 100.0% | Number of test isolates at MIC [2]: 3 | Cumulative percentage of isolates inhibited at MIC [2, 4]: 20.0% | Number of test isolates at MIC [2, 4]: 1 | Cumulative percentage of isolates inhibited at MIC [2, 5]: 33.3% | Number of test isolates at MIC [2, 5]: 4 | Cumulative percentage of isolates inhibited at MIC [2, 6]: 36.7% | Number of test isolates at MIC [2, 6]: 1 | Cumulative percentage of isolates inhibited at MIC [2, 7]: 46.7% | Number of test isolates at MIC [2, 7]: 3 | Cumulative percentage of isolates inhibited at MIC [2, 8]: 66.7% | Number of test isolates at MIC [2, 8]: 6 | Cumulative percentage of isolates inhibited at MIC [2, 9]: 90.0% | Number of test isolates at MIC [2, 9]: 7 | CLSI QC range (MIC) (S. pneumoniae ATCC 49619): (0.03-0.12) μg/mL | activity against SIBO organisms (SIBO Bacteria): active against SIBO organisms | MIC ([3]; B. fragilis and B. ovatus isolates, read-out: initial MIC values (agar dilution)): 128 µg/mL (≈ 231 µM) | MIC [3, 10]: 128 µg/mL (≈ 231 µM) | MIC [3, 11]: 128 µg/mL (≈ 231 µM) | MIC [3, 12]: 4 µg/mL (≈ 7.21 µM) | MIC [3, 13]: 4 to 128 µg/mL (≈ 7.21 to 231 µM)

C[C@@H](O)[C@H]1C(=O)N2C(C(=O)O)=C(S[C@@H]3CN[C@H](C(=O)N(C)C)C3)[C@H](C)[C@H]12 [meropenem]
% R (Klebsiella spp.): Sixteen | % S (Klebsiella spp.): 84% | Mode (Klebsiella spp.): 0.015 µg/mL | relative activity among drugs tested (Klebsiella spp.): most active drug evaluated; also recorded: MIC50 value for meropenem was the lowest | Cumulative percentage of isolates at MIC (Klebsiella spp.; 0.015 μg/mL): 58.0% | Number of test isolates at MIC (Klebsiella spp.; 0.015 μg/mL): 27 | Cumulative percentage of isolates at MIC (Klebsiella spp.; 0.03 μg/mL): 80.0% | Number of test isolates at MIC (Klebsiella spp.; 0.03 μg/mL): 11 | Cumulative percentage of isolates at MIC (Klebsiella spp.; 0.06 μg/mL): 82.0% | Number of test isolates at MIC (Klebsiella spp.; 0.06 μg/mL): 1 | Cumulative percentage of isolates at MIC (Klebsiella spp.; 0.5 μg/mL): 84.0% | Number of test isolates at MIC (Klebsiella spp.; 0.5 μg/mL): 1 | Cumulative percentage of isolates at MIC (Klebsiella spp.; 8 μg/mL): 88.0% | Number of test isolates at MIC (Klebsiella spp.; 8 μg/mL): 2 | Cumulative percentage of isolates at MIC (Klebsiella spp.; >8 μg/mL): 100.0% | Number of test isolates at MIC (Klebsiella spp.; >8 μg/mL): 6 | MIC50 (Klebsiella spp.; Klebsiella): 0.015 µg/mL (≈ 0.0391 µM) | MIC90 (Klebsiella spp.; Klebsiella, read-out: MIC90): > 8 µg/mL | % R (Klebsiella spp.; listed as MEM): 16% | MIC90 (Klebsiella spp.; listed as MEM): >8 µg/mL | Cumulative percentage of isolates at MIC (Klebsiella spp.; ≤0.008 μg/mL): 4.0% | Number of test isolates at MIC (Klebsiella spp.; ≤0.008 μg/mL): 2 | Cumulative percentage of isolates inhibited at MIC ([1]; MIC 0.06 μg/mL): 6.9% | Number of test isolates at MIC ([1]; MIC 0.06 μg/mL): 2 | Cumulative percentage of isolates inhibited at MIC ([1]; MIC 0.5 μg/mL): 75.9% | Number of test isolates at MIC ([1]; MIC 0.5 μg/mL): 10 | Cumulative percentage of isolates inhibited at MIC ([1]; MIC 1 μg/mL): 82.8% | Number of test isolates at MIC ([1]; MIC 1 μg/mL): 2 | Cumulative percentage of isolates inhibited at MIC ([1]; MIC 2 μg/mL): 93.1% | Number of test isolates at MIC ([1]; MIC 2 μg/mL): 3 | Cumulative percentage of isolates inhibited at MIC ([1]; MIC 4 μg/mL): 96.6% | Number of test isolates at MIC ([1]; MIC 4 μg/mL): 1 | Cumulative percentage of isolates inhibited at MIC ([1]; MIC >8 μg/mL): 100.0% | Number of test isolates at MIC ([1]; MIC >8 μg/mL): 1 | Cumulative percentage of isolates inhibited at MIC [2, 14]: 16.7% | Number of test isolates at MIC [2, 14]: 3 | Cumulative percentage of isolates inhibited at MIC [2, 15]: 36.7% | Number of test isolates at MIC [2, 15]: 6 | Cumulative percentage of isolates inhibited at MIC [2, 16]: 76.7% | Number of test isolates at MIC [2, 16]: 12 | Cumulative percentage of isolates inhibited at MIC [2, 17]: 6.7% | Number of test isolates at MIC [2, 17]: 2 | CLSI QC range (MIC) (S. pneumoniae ATCC 49619): (0.03-0.25)^1 μg/mL | activity against SIBO organisms (SIBO Bacteria): active against SIBO organisms | MIC [3, 10]: 0.12 µg/mL (≈ 0.313 µM) | MIC [3, 11]: 0.12 µg/mL (≈ 0.313 µM) | MIC [3, 12]: 0.12 µg/mL (≈ 0.313 µM) | MIC [3, 13]: 0.008 to 0.12 µg/mL (≈ 0.0209 to 0.313 µM)
